According to ChEMBL document CHEMBL5247626, “In vitro and in vivo biological evaluation of newly synthesized multi-target 20(R)-panaxadiol derivatives for treating Alzheimer's disease” (Eur J Med Chem, 2022):
Activity calls are given as the source filed them. The rule behind the calls is not given here.

How the values were obtained:
HUVEC = assay: Cytotoxicity against human HUVEC cells assessed as effect on survival at < 60 uM incubated for 24 hrs by MTT assay; assay type: toxicity, cell-based
[1] = target: Amyloid-beta precursor protein (Homo sapiens) (UniProt P05067); assay: Disaggregation of amyloid beta (25 to 35) (unknown origin) self aggregation at 15 uM incubated for 24 hrs by transmission electron microscopy analysis
PC-12 = assay: Neuroprotective activity against amyloid beta (25 to 35)-induced rat PC12 cells assessed as decrease in tau hyperphosphorylation at Thr181 at 7.5 to 30 uM preincubated for 30 mins followed by amyloid beta (25 to 35) addition and measured after 24 hrs by western blot assay; assay type: functional, cell-based; settings: dose 7.5-30 µM, time 24.5 hrs

Chain of Amyloid-beta precursor protein (Homo sapiens) (P05067 whole entry): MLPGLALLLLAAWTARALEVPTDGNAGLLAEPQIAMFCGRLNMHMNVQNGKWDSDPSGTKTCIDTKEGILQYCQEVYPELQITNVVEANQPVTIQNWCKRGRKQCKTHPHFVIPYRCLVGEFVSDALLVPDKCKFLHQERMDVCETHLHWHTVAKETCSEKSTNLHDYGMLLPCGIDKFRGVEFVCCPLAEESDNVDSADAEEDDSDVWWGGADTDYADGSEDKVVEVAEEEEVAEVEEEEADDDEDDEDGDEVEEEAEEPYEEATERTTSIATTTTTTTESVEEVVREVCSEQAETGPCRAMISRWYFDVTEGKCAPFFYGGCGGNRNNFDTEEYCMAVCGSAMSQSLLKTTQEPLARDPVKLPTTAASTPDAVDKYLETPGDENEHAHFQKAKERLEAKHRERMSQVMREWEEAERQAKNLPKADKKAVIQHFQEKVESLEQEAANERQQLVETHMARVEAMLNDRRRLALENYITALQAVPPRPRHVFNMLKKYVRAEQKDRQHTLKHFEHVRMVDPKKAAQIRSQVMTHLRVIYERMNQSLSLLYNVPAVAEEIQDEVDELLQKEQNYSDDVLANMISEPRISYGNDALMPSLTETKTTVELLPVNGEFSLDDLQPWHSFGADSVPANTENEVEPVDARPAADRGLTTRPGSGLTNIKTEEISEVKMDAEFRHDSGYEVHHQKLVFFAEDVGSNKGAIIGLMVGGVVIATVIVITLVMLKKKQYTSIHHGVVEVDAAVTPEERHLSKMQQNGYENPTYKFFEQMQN

CC1(C)CCC[C@](C)([C@H]2CC[C@]3(C)[C@@H]2[C@H](O)C[C@@H]2[C@@]4(C)CC[C@H](OC(=O)NCc5ccccc5)C(C)(C)[C@@H]4CC[C@]23C)O1
Activity (HUVEC): Non-Toxic
Activity [1]: Active
Activity (PC-12): Active
